Here are results for 12 compounds from patent US7432260B2, “Pyrimidine compounds” (Cyclacel Limted, priority 2002, dated 2008).

As usually defined, the IC50 is the concentration that inhibits the measured activity by half.

The target of one assay is CDK1/cyclin B (Homo sapiens, UniProt P06493). Kind of assay: Kinase assay CDK1/cyclin B. To be noted: Table 2; read-out: Kinase Inhibition IC50 CDK1 cyclin B. The assay is classed as biochemical. Put shortly: (§1)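 Enzyme + substrate in β-glycerophosphate/MOPS/EGTA/DTT buffer, pH 7.4 → Mg/ATP (100 μM ATP, γ-32P) start → 30° C incubation → ice stop → P81 or GF/C filtration, H3PO4 wash → scintillation count.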

The next assay deals with CDK2/cyclin A (Homo sapiens, UniProt P24941). Kind of assay: Kinase assay CDK2/cyclin A. The format is biochemical. The following applies: Table 2; read-out: Kinase Inhibition IC50 CDK2 cyclin A. In a few lines: as §1
The next assay concerns the target CDK2/cyclin E (Homo sapiens, UniProt P24941). Kind of assay: Kinase assay CDK2/cyclin E. The following applies: Table 2; read-out: Kinase Inhibition IC50 CDK2 cyclin E. The format is biochemical. Put shortly:
as §1

The target of the next assay is CDK4/cyclin D1 (Homo sapiens, UniProt P11802). Kind of assay: Kinase assay CDK4/cyclin D1. The assay is classed as biochemical. To be noted: Table 2; read-out: Kinase Inhibition IC50 CDK4 cyclin D1. In a few lines:
as §1

The target in a further assay is CDK7/cyclin H (Homo sapiens, UniProt P50613). Kind of assay: CDK7 assay. The assay is classed as biochemical. To be noted: Table 2; read-out: Kinase Inhibition IC50 CDK7 cyclin H. In a few lines:
(§2)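 Recombinant human CDK7/cyclin H or CDK9/cyclin T1 (0.5–2 μg) phosphorylated biotinylated CTD heptapeptide-repeat substrate for 45 min at 30 °C in MOPS pH 7.2 buffer with 15 mM MgCl2 and 100 μM ATP plus [γ-32P]ATP. After avidin capture on P81 filters and phosphoric acid washes, 32P incorporation was counted by scintillation.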

Another assay addresses CDK9/cyclin T1 (Homo sapiens, UniProt P50750). Kind of assay: CDK9 assay. To be noted: Table 2; read-out: Kinase Inhibition IC50 CDK9 cyclin T1. The format is biochemical. Put shortly:
as §2

The target in the next assay is GSK-3β (Homo sapiens, UniProt P49841). Kind of assay: Kinase assay GSK-3β. The following applies: Table 2; read-out: Kinase Inhibition IC50 GSK-3β. The format is biochemical. How it is done: (§3) Kinase assays. […] This was achieved by measurement of incorporation of radioactive phosphate from ATP into appropriate polypeptide substrates. Recombinant protein kinases and kinase complexes were produced or obtained commercially. Assays were performed using 96-well plates and appropriate assay buffers (typically 25 mM β-glycerophosphate, 20 mM MOPS, 5 mM EGTA, 1 mM DTT, 1 mM […], pH 7.4), into which were added 2-4 μg of active enzyme with appropriate substrates. The reactions were initiated by addition of Mg/ATP mix (15 mM MgCl2+100 μM ATP with 30-50 kBq per well of [γ-^32P]-ATP) and mixtures incubated as required at 30° C. Reactions were stopped on ice, followed by filtration through p81 filterplates or GF/C filterplates (Whatman Polyfiltronics, Kent, UK). After washing 3 times with 75 mM aq orthophosphoric acid, plates were dried, scintillant added and incorporated radioactivity measured in a scintillation counter (TopCount, Packard Instruments, Pangbourne, Berks, UK). Compounds for kinase assay were made-up as 10 mM stocks in DMSO and diluted into 10% DMSO inrassay buffer.

The target in the next assay is PLK-1 (Homo sapiens, UniProt P53350). Kind of assay: Kinase assay PLK-1. The assay is classed as biochemical. To be noted: Table 2; read-out: Kinase Inhibition IC50 PLK-1. On the procedure: as §3
For a further assay, the system named is A549. Kind of assay: 72-h MTT cytotoxicity assay A549. The assay is classed as cell-based. The following applies: Homo sapiens, A549, 72 h, Table 4. In a few lines: (§4)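 MTT viability, 72 h compound exposure at 37° C; triplicate wells, 1/3 serial dilutions from DMSO stocks; seeding density per doubling time; MTT 4 h in dark; DMSO solubilisation.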
For orientation: Tetrazolium dyes change colour on reduction, which living cells bring about.

In another assay the test system is HT29. Kind of assay: 72-h MTT cytotoxicity assay HT29. To be noted: Homo sapiens, HT-29, 72 h, Table 4. The assay is classed as cell-based. Put shortly:
as §4

A further assay deals with Saos-2. Kind of assay: 72-h MTT cytotoxicity assay Saos-2. The format is cell-based. The following applies: Homo sapiens, SAOS-2, 72 h, Table 4. Put shortly:
as §4

Chain of GSK-3β (P49841 whole entry): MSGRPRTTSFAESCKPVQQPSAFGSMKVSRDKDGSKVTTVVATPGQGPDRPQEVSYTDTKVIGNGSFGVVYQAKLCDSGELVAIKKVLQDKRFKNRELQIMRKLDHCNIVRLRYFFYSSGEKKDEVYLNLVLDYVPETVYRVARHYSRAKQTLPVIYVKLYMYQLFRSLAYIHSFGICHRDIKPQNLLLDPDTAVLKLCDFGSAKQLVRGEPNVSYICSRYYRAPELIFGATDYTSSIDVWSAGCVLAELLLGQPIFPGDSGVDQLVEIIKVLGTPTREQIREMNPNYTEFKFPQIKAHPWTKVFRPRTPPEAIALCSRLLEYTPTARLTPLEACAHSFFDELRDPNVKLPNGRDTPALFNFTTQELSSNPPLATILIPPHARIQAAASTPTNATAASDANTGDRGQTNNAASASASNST
Chain of CDK7/cyclin H (P50613 whole entry): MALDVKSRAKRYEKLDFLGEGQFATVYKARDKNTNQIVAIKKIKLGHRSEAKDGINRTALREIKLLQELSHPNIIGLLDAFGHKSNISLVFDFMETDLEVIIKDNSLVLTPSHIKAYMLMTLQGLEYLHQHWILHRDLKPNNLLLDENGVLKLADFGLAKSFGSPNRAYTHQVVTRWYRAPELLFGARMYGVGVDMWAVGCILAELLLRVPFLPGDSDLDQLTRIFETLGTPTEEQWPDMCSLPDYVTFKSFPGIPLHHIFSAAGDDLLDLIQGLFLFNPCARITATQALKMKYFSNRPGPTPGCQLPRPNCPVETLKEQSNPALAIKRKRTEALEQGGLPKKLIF
Chain of PLK-1 (P53350 whole entry): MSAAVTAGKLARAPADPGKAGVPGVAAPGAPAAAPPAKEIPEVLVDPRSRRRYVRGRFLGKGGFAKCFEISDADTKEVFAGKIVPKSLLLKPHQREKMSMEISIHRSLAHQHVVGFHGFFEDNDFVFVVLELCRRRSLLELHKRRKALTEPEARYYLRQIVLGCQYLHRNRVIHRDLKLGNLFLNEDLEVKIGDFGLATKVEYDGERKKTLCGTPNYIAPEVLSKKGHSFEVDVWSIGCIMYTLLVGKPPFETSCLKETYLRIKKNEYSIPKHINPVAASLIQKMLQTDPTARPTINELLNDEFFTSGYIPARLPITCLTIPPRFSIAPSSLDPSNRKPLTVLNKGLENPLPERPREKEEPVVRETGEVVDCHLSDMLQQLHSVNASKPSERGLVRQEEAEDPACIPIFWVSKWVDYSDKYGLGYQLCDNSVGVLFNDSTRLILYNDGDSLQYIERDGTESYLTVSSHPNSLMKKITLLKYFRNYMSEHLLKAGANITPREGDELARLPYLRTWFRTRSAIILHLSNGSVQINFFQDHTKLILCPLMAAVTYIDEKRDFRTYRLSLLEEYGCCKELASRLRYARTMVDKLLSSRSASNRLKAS
Chain of CDK9/cyclin T1 (P50750 whole entry): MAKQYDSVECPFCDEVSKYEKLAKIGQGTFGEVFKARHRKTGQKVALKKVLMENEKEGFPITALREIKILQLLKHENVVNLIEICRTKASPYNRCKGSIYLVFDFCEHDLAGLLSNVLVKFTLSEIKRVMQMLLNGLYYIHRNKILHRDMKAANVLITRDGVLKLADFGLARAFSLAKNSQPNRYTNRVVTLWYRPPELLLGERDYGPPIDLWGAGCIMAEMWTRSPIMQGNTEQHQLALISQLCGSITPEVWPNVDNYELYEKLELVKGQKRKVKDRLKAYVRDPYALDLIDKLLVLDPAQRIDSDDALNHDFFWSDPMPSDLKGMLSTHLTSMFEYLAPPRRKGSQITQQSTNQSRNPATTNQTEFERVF
Chain of CDK9/cyclin T1 (O60563 whole entry partner): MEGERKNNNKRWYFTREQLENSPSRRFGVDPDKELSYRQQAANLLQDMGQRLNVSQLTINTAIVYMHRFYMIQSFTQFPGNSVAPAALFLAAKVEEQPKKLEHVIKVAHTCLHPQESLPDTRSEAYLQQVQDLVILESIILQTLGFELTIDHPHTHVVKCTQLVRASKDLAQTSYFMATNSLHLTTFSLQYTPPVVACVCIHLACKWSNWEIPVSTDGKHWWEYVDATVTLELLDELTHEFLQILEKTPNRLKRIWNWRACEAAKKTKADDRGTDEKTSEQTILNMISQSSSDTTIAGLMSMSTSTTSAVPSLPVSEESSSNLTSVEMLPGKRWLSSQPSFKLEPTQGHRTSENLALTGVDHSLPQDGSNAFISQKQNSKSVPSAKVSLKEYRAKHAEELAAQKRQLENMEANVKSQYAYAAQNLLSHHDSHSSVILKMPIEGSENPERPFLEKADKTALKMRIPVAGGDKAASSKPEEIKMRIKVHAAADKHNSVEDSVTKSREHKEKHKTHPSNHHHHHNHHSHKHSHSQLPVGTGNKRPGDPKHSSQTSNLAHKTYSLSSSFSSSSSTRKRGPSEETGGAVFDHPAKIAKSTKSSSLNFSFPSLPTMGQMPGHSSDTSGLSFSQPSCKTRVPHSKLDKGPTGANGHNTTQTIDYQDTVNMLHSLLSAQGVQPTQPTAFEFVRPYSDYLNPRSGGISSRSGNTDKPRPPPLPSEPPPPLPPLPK
Chain of CDK4/cyclin D1 (P11802 whole entry): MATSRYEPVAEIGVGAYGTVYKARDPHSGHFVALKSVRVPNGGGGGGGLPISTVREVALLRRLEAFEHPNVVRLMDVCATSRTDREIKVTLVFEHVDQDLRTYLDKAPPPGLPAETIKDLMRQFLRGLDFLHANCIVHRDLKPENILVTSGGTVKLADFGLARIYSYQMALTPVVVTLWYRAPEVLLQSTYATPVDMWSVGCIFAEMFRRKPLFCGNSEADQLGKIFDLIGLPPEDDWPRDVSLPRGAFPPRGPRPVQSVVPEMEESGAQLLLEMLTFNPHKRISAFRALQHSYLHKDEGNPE
Chain of CDK4/cyclin D1 (P24385 whole entry partner): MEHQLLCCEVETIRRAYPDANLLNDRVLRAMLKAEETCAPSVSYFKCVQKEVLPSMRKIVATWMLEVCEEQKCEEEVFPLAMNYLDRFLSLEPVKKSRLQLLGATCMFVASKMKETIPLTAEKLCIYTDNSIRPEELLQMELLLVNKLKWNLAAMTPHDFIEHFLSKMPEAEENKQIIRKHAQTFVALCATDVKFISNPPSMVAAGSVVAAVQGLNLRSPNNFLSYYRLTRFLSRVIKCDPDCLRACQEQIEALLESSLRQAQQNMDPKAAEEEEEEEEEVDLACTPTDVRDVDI
Chain of CDK1/cyclin B (P06493 whole entry): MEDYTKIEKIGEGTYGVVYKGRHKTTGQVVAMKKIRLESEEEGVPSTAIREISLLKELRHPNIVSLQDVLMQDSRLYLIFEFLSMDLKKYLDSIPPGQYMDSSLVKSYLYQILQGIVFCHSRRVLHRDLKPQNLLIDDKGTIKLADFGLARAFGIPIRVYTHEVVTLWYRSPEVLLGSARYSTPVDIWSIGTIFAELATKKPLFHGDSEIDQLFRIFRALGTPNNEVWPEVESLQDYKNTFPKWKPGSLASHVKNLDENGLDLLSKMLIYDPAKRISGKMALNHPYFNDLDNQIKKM
Chain of CDK1/cyclin B (P14635 whole entry partner): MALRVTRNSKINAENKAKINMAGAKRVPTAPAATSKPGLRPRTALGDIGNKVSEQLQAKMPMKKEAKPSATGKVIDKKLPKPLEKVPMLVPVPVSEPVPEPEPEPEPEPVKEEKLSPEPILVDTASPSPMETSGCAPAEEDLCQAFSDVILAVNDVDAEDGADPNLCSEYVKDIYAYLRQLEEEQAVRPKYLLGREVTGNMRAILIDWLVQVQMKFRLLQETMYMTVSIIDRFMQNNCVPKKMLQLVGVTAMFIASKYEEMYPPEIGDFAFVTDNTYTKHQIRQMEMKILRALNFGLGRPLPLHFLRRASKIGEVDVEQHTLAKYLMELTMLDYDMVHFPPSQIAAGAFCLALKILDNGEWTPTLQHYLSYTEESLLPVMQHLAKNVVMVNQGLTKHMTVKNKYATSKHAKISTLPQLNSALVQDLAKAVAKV

Take `CCNc1nc(C)c(-c2ccnc(Nc3cccc(CNC(C)=O)c3)n2)s1` [Compound 64, N-{3-[4-(2-Ethylamino-4-methyl-thiazol-5-yl)-pyrimidin-2-ylamino]-benzyl}-acetamide]: the half-inhibitory concentration (IC50) on CDK1/cyclin B turned out to be 740 nM; at CDK2/cyclin A, 310 nM; at CDK2/cyclin E, 80 nM; at CDK4/cyclin D1, 130 nM; at CDK7/cyclin H, 590 nM; at CDK9/cyclin T1, 100 nM. Further, the IC50 is 2100 nM at GSK-3β; 18000 nM at PLK-1; 190 nM in the assay with A549; 410 nM in the assay on HT29; 340 nM in the assay on Saos-2.
Regarding `Cc1nc(N2CCOCC2)sc1-c1ccnc(Nc2ccc(N(C)C)cc2)n1` [Compound 57, N,N-Dimethyl-N′-[4-(4-methyl-2-morpholin-4-yl-thiazol-5-yl)-pyrimidin-2-yl]-benzene-1,4-diamine], the IC50 is 7700 nM at CDK1/cyclin B; 73000 nM at CDK2/cyclin A; 350 nM on CDK2/cyclin E; 71 nM on CDK4/cyclin D1; 190 nM on CDK7/cyclin H; 12000 nM at CDK9/cyclin T1. Further, the IC50 on GSK-3β was determined as 74000 nM; in the assay with A549, 2700 nM; in the assay with HT29, 240 nM; with Saos-2, 3800 nM.
On to `Cc1nc(C)c(-c2ccnc(Nc3ccc(N4CCNCC4)cc3)n2)s1` [Compound 6, [4-(2,4-Dimethyl-thiazol-5-yl)-pyrimidin-2-yl]-(4-piperazin-1-yl-phenyl)-amine], for which the 50% inhibitory concentration (IC50) on CDK1/cyclin B worked out at 3000 nM; on CDK2/cyclin A, 850 nM; on CDK2/cyclin E, 710 nM; at CDK4/cyclin D1, 390 nM; at CDK7/cyclin H it was 1300 nM; on CDK9/cyclin T1, 1000 nM. Besides, the IC50 was 5200 nM at GSK-3β; 13000 nM at PLK-1; 1300 nM in the assay with A549; 1100 nM in the assay with HT29; 780 nM with Saos-2.
In the case of `Cc1nc(C)c(-c2ccnc(Nc3ccc(N4CCOCC4)cc3)n2)s1` [Compound 2, [4-(2,4-Dimethyl-thiazol-5-yl)-pyrimidin-2-yl]-(4-morpholin-4-yl-phenyl)-amine], the half-inhibitory concentration (IC50) at CDK1/cyclin B is 75000 nM; on CDK4/cyclin D1, 3900 nM; at CDK7/cyclin H it was 97000 nM; at CDK9/cyclin T1, 23000 nM; on GSK-3β it was greater than 100000 nM; at PLK-1, greater than 100000 nM. For the same compound, the concentration for half-maximal inhibition (IC50) in the assay on A549 was determined as 3500 nM; in the assay with HT29, 3300 nM; with Saos-2 it was 4800 nM.
As to `Cc1nc(C)c(-c2ccnc(Nc3ccc(N4CCN(C)CC4)cc3)n2)s1` [Compound 12, [4-(2,4-Dimethyl-thiazol-5-yl)-pyrimidin-2-yl]-[4-(4-methyl-piperazin-1-yl)-phenyl]-amine], the IC50 at CDK1/cyclin B turned out to be 4200 nM; at CDK2/cyclin A it was 1000 nM; on CDK2/cyclin E, 1800 nM; at CDK4/cyclin D1 it was 190 nM; on CDK7/cyclin H it was 1100 nM; on CDK9/cyclin T1, 280 nM. Moreover, the half-maximal inhibitory concentration (IC50) on GSK-3β amounted to 53000 nM; on PLK-1, 55000 nM; with A549 it was 710 nM; in the assay with HT29 it was 740 nM; with Saos-2 it was 430 nM.
For the compound `Cc1nc(NC(=O)CCN2CCOCC2)sc1-c1ccnc(Nc2cccc([N+](=O)[O-])c2)n1` [Compound 22, N-{4-Methyl-5-[2-(3-nitro-phenylamino)-pyrimidin-4-yl]-thiazol-2-yl}-3-morpholin-4-yl-propionamide], the half-inhibitory concentration (IC50) at CDK1/cyclin B turned out to be 240 nM; on CDK2/cyclin A, 98 nM; at CDK2/cyclin E it was 2.5 nM; at CDK4/cyclin D1, 1700 nM; at CDK7/cyclin H, 200 nM; at CDK9/cyclin T1, 110 nM. Further, the IC50 on GSK-3β was 250 nM; on PLK-1, greater than 100000 nM; with A549, 810 nM; with HT29 it was 520 nM; in the assay on Saos-2, 600 nM.
Regarding `Cc1nc(C)c(-c2ccnc(Nc3ccc(NC(=O)Cn4ccnc4)cc3)n2)s1` [Compound 54, N-{4-[4-(2,4-Dimethyl-thiazol-5-yl)-pyrimidin-2-ylamino]-phenyl}-2-imidazol-1-yl-acetamide], the IC50 worked out at 1300 nM on CDK1/cyclin B; 57000 nM at CDK2/cyclin A; 98 nM on CDK2/cyclin E; 32 nM on CDK4/cyclin D1; 2100 nM on CDK7/cyclin H; 110 nM on CDK9/cyclin T1. Besides, the half-inhibitory concentration (IC50) stood at 19000 nM on GSK-3β, 2900 nM in the assay with A549, 2700 nM in the assay on HT29 and 1900 nM with Saos-2.
Regarding `Cc1nc(NC(=O)CCN2CCN(C)CC2)sc1-c1ccnc(Nc2cccc([N+](=O)[O-])c2)n1` [Compound 23, N-{4-Methyl-5-[2-(3-nitro-phenylamino)-pyrimidin-4-yl]-thiazol-2-yl}-3-(4-methyl-piperazin-1-yl)-propionamide], the IC50 came to 3100 nM at CDK1/cyclin B; 1400 nM at CDK2/cyclin A; 190 nM at CDK2/cyclin E; 3000 nM on CDK4/cyclin D1; 810 nM at CDK7/cyclin H; 400 nM on CDK9/cyclin T1. Further, the IC50 on GSK-3β came out at 1200 nM; on PLK-1, 24000 nM; in the assay with A549, 3800 nM; in the assay with HT29, 1100 nM; in the assay on Saos-2, 4400 nM.
On to `Cc1nc(NC(=O)CCl)sc1-c1ccnc(Nc2cccc(Cl)c2)n1` [Compound 25, 2-Chloro-N-{5-[2-(3-chloro-phenylamino)-pyrimidin-4-yl]-4-methyl-thiazol-2-yl}-acetamide], for which the concentration for half-maximal inhibition (IC50) at CDK1/cyclin B amounted to 9400 nM; on CDK2/cyclin A it was 3000 nM; on CDK2/cyclin E it was 220 nM; on CDK4/cyclin D1, 970 nM; at CDK7/cyclin H it was 3200 nM; on CDK9/cyclin T1 it was 680 nM. For the same compound, the IC50 on GSK-3β is 83 nM; in the assay on A549 it was 970 nM; with HT29, 1300 nM; in the assay with Saos-2 it was 1600 nM.
On to `CC(=O)N1CCN(c2ccc(Nc3nccc(-c4sc(C)nc4C)n3)cc2)CC1` [Compound 5, 1-(4-{4-[4-(2,4-Dimethyl-thiazol-5-yl)-pyrimidin-2-ylamino]-phenyl}-piperazin-1-yl)-ethanone], for which the IC50 on CDK1/cyclin B came to 5600 nM; on CDK4/cyclin D1 it was 1700 nM; on CDK7/cyclin H, 5600 nM; at CDK9/cyclin T1, 6100 nM; at GSK-3β, 21000 nM; on PLK-1 it was 35000 nM. The values for the concentration for half-maximal inhibition (IC50) with A549, in the assay on HT29 and with Saos-2 were 3800 nM, 2200 nM and 3900 nM, respectively.
For `Cc1nc(N2CCOCC2)sc1-c1ccnc(Nc2cccc(O)c2)n1` [Compound 55, 3-[4-(4-Methyl-2-morpholin-4-yl-thiazol-5-yl)-pyrimidin-2-ylamino]-phenol], the IC50 is 2400 nM at CDK1/cyclin B; 61000 nM on CDK2/cyclin A; 79 nM on CDK2/cyclin E; 1000 nM at CDK4/cyclin D1; 2200 nM on CDK7/cyclin H; 2100 nM on CDK9/cyclin T1. Further, the half-maximal inhibitory concentration (IC50) at GSK-3β was determined as 67000 nM; in the assay with A549 it was 2300 nM; in the assay with HT29 it was 5100 nM; with Saos-2, 1400 nM.
As to `CNc1nc(C)c(-c2ccnc(Nc3ccc(Cl)c(CO)c3)n2)s1` [Compound 73, {2-Chloro-5-[4-(4-methyl-2-methylamino-thiazo1-5-yl)-pyrimidin-2-ylamino]-phenyl}-methanol], the IC50 was 1700 nM on CDK1/cyclin B; 1300 nM on CDK2/cyclin A; 1000 nM at CDK2/cyclin E; 230 nM at CDK4/cyclin D1; 2000 nM at CDK7/cyclin H; 550 nM on CDK9/cyclin T1. Further, the concentration for half-maximal inhibition (IC50) at GSK-3β is 5200 nM; in the assay on A549, 1500 nM; in the assay with HT29 it was 5500 nM; in the assay with Saos-2 it was 2900 nM.
